The values below come from patent US20080175974A1, “Isomaltulose as an Aftertaste-Shortening Agent” (Suedzucker Aktiengesellschaft Mannheim/Ochsenfurt, priority 2005, published 2008).

For data set [1] the following is noted: cited from earlier work.
The subject of data set [2] is test subjects. Kind of data set: Sensory evaluation of milk chocolate containing sucralose (aftertaste). In kind it is in vivo, humans. Conditions: milk chocolate with 42.41 g/100 g isomaltulose and 0.02 g/100 g sucralose; 12 to 17 test subjects; assessed after chocolate completely dissolved in the mouth; compared with trehalose, lactite, maltite, erythrite chocolates; FIG. 1. As for the experimental part:
Milk chocolates containing sucralose were produced, which contained either a sugar substitute or isomaltulose (Palatinose™) as the sweetener that is absorbed by the body. These milk chocolates were evaluated sensorially with respect to their aftertaste that is typical of sucralose.
“You have before you samples of chocolate containing sucralose. Sucralose has a pronounced, lingering aftertaste. The following samples are to be evaluated with regard to whether, and if so to what extent, this aftertaste is perceptible.
Please take a serving of chocolate (1 “square”) and suck on it. […] Then please assess the aftertaste of the sample.
To neutralize the taste, please have some of the prepared tea and the white bread.”
Samples: • Milk chocolate containing sucralose with isomaltulose • Milk chocolate containing sucralose with trehalose • Milk chocolate containing sucralose with lactite • Milk chocolate containing sucralose with maltite • Milk chocolate containing sucralose with erythrite
The sensory evaluation of the chocolates containing sucralose was performed by 12 to 17 test subjects.
The aftertaste of the sucralose was assessed after the chocolate had been completely dissolved in the mouth.

For data set [3] the following is noted: water; cited from earlier work.
Data set [4] deals with test subjects. Kind of data set: Sensory evaluation of aqueous solutions containing sucralose (aftertaste). It is filed as in vivo, humans. Conditions: aqueous solution 7.916% isomaltulose, 0.004% sucralose; 5 test subjects; assessed immediately following consumption; compared with maltodextrin or saccharose solutions; scale 0=no perceptible aftertaste, 2=clearly perceptible.
Description: Aqueous solutions containing sucralose were prepared, which contained isomaltulose, maltodextrin or saccharose as a sweetener. All the solutions also contained sucralose. […] Samples: • Maltodextrin solution: 7.916% maltodextrin; 0.004% sucralose; 92.080% water • Palatinose™ solution: 7.916% isomaltulose; 0.004% sucralose; 92.080% water • Saccharose solution: 5.603% saccharose; 0.004% sucralose; 94.393% water The sensory evaluation of the solutions containing sucralose was performed by 5 test subjects. The aftertaste of the sucralose was assessed immediately following consumption of the solution containing sucralose.

As to `O=C(CO)[C@@H](O)[C@H](O)[C@H](O)CO[C@H]1O[C@H](CO)[C@@H](O)[C@H](O)[C@H]1O` [isomaltulose, 6-O-α-D-glucopyranosyl-fructose], the sweetening power entry in data set [1] (10% aqueous isomaltulose solutions) is on record as “approximately 0.4 of the sweetening power of sugar”. Also, the “lingering aftertaste of sucralose” value in data set [2] and in data set [4] was “decreases the lingering aftertaste” each time. Besides, the aqueous solubility in data set [3] was 0.49 g anhydrous isomaltulose per gram of water.

Regarding `OC[C@H]1O[C@H](O[C@]2(CCl)O[C@H](CCl)[C@@H](O)[C@@H]2O)[C@H](O)[C@@H](O)[C@H]1Cl` [sucralose, 1,6-dichloro-1,6-didesoxy-β-D-fructofuranosyl-4-chloro-4-desoxy-α-D-galactopyranoside], the “sweetness relative to sugar” value in data set [1] (sucralose in aqueous solution) is “approximately 600 times sweeter than sugar”.
